Source: the NIST ThermoML archive (doi:10.1016/j.fluid.2013.08.005)
Values joined by “and” are separate entries in the source; they are usually repeats but may differ in a detail not shown here. Equal entries are not always repeated. ± gives the expanded uncertainty stated by the source.

Assays:
[1] = mn = molality of the nth substance listed, in mol/kg; settings: 298.15 K; 101 kPa; Liquid; Alternating current cell with electrodes; m2 = 0
[2] = molar heat capacity at constant pressure; mn = molality of the nth substance listed, in mol/kg; settings: 101 kPa, Liquid, Large sample (1 g) DSC, m2 = 0
[3] = molar heat capacity at constant pressure; settings: 101 kPa, Liquid, Large sample (1 g) DSC

SMILES	electrical conductivity [1]	molar heat capacity at constant pressure ([2]; 298.15 K)	molar heat capacity at constant pressure ([2]; 303.15 K)	molar heat capacity at constant pressure ([2]; 308.15 K)	molar heat capacity at constant pressure ([2]; 313.15 K)	molar heat capacity at constant pressure ([3]; 298.15 K)	molar heat capacity at constant pressure ([3]; 303.15 K)	molar heat capacity at constant pressure ([3]; 308.15 K)	molar heat capacity at constant pressure ([3]; 313.15 K)
O [water] + CCCCCC[N+](C)(C)C.[Br-]	0.239 ± 0.0095 S/m	75.37 ± 1.3 J/K/mol	75.34 ± 1.3 J/K/mol	75.33 ± 1.3 J/K/mol	75.34 ± 1.3 J/K/mol				
O [water]						75.37 ± 1.3 J/K/mol and 75.35 ± 1.3 J/K/mol	75.34 ± 1.3 J/K/mol and 75.32 ± 1.3 J/K/mol	75.33 ± 1.3 J/K/mol and 75.32 ± 1.3 J/K/mol	75.34 ± 1.3 J/K/mol and 75.33 ± 1.3 J/K/mol
O [water] + CCCCCCCC[N+](C)(C)C.[Br-]		75.35 ± 1.3 J/K/mol	75.32 ± 1.3 J/K/mol	75.32 ± 1.3 J/K/mol	75.33 ± 1.3 J/K/mol				
